From patent US9593096B2, “α7 nicotinic acetylcholine receptor modulators and uses thereof-III” (Merck Sharp & Dohme Corp., priority 2013, dated 2017) come the findings set out here.

For one assay, the target named is T1, rat α7 nAChRs (Rattus norvegicus, UniProt Q05941).
T1 construct: expressed in transfected cells; host or cells: GH4C1 (rat pituitary cell line) stably expressing α7 nAChR
The assay is described as follows: Automated planar patch clamp (Patchliner) for α7 nAChR positive allosteric modulation. The assay is classed as cell-based. Details: key to Type I or Type II: I: Type 1 predominately affects the peak current; Type II modulators affect the peak current and also delay the desensitization of the receptor. Conditions: for activation at 3 µM: GH4-C1, 3 μM compound in the presence of acetylcholine, GH4C1 cells expressing rat α7 nAChRs, relative to control ACh response, read-out: Peak potentiation at 3 μM compound; for Type I or Type II: modulator type based on the electrophysiology trace. The procedure:
Compounds of the invention may be evaluated by electrophysiology using a Patchliner® (Nanion Technologies GmbH, Germany), an automated planar patch-clamp platform of medium throughput was used as a first step in electrophysiological assessment of α7 nAChR positive allosteric modulators (PAMs).
Briefly, intracellular (KCl—50 mM, NaCl—10 mM, KF—60 mM, EGTA—20 mM, HEPES—10 mM, pH—7.2, 285 mOsmol) and extracellular (NaCl—140 mM, KCl—4 mM, CaCl2-2 mM, MgCl2—1 mM, HEPES—10 mM, D-Glucose—5 mM, pH—7.4, 298 mOsmol) solutions were automatically pipetted onto NPC-16 chip (medium resistance ˜2.5-2.6 MΩ). Suspension of GH4C1 cells expressing rat α7 nAChRs was introduced in 4 wells of a medium resistance chip and suction was applied to attract cells in the holes. The extracellular solution was subsequently exchanged to high calcium solution (NaCl—80 mM, KCl—3 mM, CaCl2—45 mM, HEPES—10 mM, pH—7.4, 298 mOsmol) followed by gigaohm seal formation and obtaining whole-cell configuration. The rest of protocol was carried out in the high-calcium recording solution. Holding potential was −70 mV throughout the protocol. A control response to 60 or 100 μM of ACh was obtained first. Next, a cell was pre-incubated with compound of interest at 3 μM for ˜30 s after which the compound was co-applied with acetylcholine.
Amplitude of the responses was measured in HEKA Patchmaster software (HEKA Elektronik, Germany) and percentage of potentiation calculated. Recording was repeated […] a minimum of two replicates had been obtained per compound.
Compounds shown in Table 1 were evaluated by automated planar patch clamp on the Patchliner® as described in Example P2.1. […] The compounds are designated either as Type I or Type II modulators based on the electrophysiology trace. Type 1 predominately affects the peak current. Type II modulators affect the peak current and also delay the desensitization of the receptor.
A general note: The patch-clamp technique gives a direct electrical read-out from membranes.

In the next assay the test system is mice. Briefly: T-maze Continuous Alternation Task (T-CAT), scopolamine-induced cognitive impairment. The assay is classed as in vivo. Conditions: mouse, dosed orally at 10 mg/kg, scopolamine-induced disruption of spontaneous alternation. An excerpt:
The T-maze Continuous Alternation Task (T-CAT) measures spontaneous alternation, which is the innate tendency of mice to alternate free choices in a T-maze over a series of successive runs. This sequential procedure relies on working memory and is sensitive to various pharmacological manipulations affecting memory processes.
The T-maze apparatus is made of gray Plexiglas with a main stem (55 cm long×10 cm wide×25 cm high) and two arms (30 cm long×10 cm wide×25 cm high) positioned at 90 degree angle relative to the main stem. A start box (15 cm long×10 cm wide) is separated from the main stem by a sliding door. Sliding doors are also provided to close specific arms during the forced-choice alternation task.
The experimental protocol consists of one single session, which starts with 1 “forced-choice” trial, followed by 14 “free-choice” trials. In the first “forced-choice” trial, the animal is confined for 5 s in the start arm and then it is released while either the left or right goal arm is blocked by a sliding door. The animal will negotiate the maze, eventually enter the open goal arm, and return to the start position. Immediately after the return to the start position, the left or right goal door is opened and the animal is allowed to choose freely between the left and right goal arm (“free choice” trials). The animal is considered to have entered an arm when it places four paws in the arm. A session is terminated and the animal is removed from the maze as soon as 14 free-choice trials have been performed or 10 minutes have elapsed, whichever event occurs first. The percentage of alternation over the 14 free-choice trials is determined for each mouse and is used as an index of working memory performance. This percentage is defined as entry in a different arm of the T-maze over successive visits (i.e., left-right-left-right, etc).
Scopolamine administered 20 minutes prior the initiation of the T-maze session is used to induce disruption in the spontaneous alternation of mice. Test compounds are administered 60 minutes prior the start of the T-maze session in order to evaluate their ability to reverse the scopolamine effect.
The apparatus is cleaned between each animal using alcohol (70°). Urine and faeces are removed from the maze. During the trials, animal handling and the visibility of the operator are minimized as much as possible.
The compounds were dosed orally at 10 mg/kg.

T1 sequence (Q05941 23-502): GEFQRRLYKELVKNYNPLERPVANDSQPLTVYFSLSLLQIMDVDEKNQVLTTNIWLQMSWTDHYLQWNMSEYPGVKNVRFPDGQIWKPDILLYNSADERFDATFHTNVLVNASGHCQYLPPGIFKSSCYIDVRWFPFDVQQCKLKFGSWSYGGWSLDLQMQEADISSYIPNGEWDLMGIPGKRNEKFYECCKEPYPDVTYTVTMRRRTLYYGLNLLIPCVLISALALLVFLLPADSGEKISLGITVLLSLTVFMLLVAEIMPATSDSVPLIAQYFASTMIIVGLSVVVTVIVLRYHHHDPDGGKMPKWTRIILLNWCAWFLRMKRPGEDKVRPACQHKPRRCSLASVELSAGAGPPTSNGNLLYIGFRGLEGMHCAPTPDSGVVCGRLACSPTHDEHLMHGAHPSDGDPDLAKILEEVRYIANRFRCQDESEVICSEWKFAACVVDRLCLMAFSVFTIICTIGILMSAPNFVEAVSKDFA

For the compound `Cn1cc(-c2ccc3c(c2)c(C(=O)Nc2ccnc(C(F)(F)F)c2)cn3C)cn1` [Example 11, 1-methyl-5-(1-methyl-1H-pyrazol-4-yl)-N-[2-(trifluoromethyl)pyridin-4-yl]-1H-indole-3-carboxamide], at rat α7 nAChRs, the activation at 3 µM amounted to 78% and the “Type I or Type II” value is “I”.

As for `Cn1cc(C(=O)Nc2ccnc(C(F)(F)F)c2)c2cc(C(F)(F)F)ccc21` [Example 9, 1-methyl-5-(trifluoromethyl)-N-[2-(trifluoromethyl)pyridin-4-yl]-1H-indole-3-carboxamide], on rat α7 nAChRs, the activation at 3 µM was 83% and the “Type I or Type II” value is “I”.

In the case of `CCn1cc(C(=O)Nc2ccc(C(F)(F)F)nc2)c2cc(F)ccc21` [Example 3, 1-ethyl-5-fluoro-N-[6-(trifluoromethyl)pyridin-3-yl]-1H-indole-3-carboxamide], the “T-maze % control at 10 mg/kg” value in the assay on mice is reported as 73%.

`CCn1cc(C(=O)Nc2cc(C(F)(F)F)ncn2)c2cc(F)ccc21` [Example 2, 1-ethyl-5-fluoro-N-[6-(trifluoromethyl)pyrimidin-4-yl]-1H-indole-3-carboxamide]: in the assay with mice, the “T-maze % control at 10 mg/kg” value is 76%. Also, the “Type I or Type II” value at rat α7 nAChRs was “I”.

For `CCn1cc(C(=O)Nc2ccnc(C(F)(F)F)n2)c2cc(F)ccc21` [Example 4, 1-ethyl-5-fluoro-N-[2-(trifluoromethyl)pyrimidin-4-yl]-1H-indole-3-carboxamide], at rat α7 nAChRs, the activation at 3 µM was 30% and the “Type I or Type II” value is listed as “I”.

Consider `O=C(Nc1ccnc(C(F)(F)F)c1)c1cn(CCO)c2ccc(F)cc12` [Example 12, 5-fluoro-1-(2-hydroxyethyl)-N-[2-(trifluoromethyl)pyridin-4-yl]-1H-indole-3-carboxamide], for which, on rat α7 nAChRs, the activation at 3 µM was found to be 257% and the “Type I or Type II” value is “I”.

Consider `Cc1ccc2c(c1)c(C(=O)Nc1ccnc(C(F)(F)F)c1)cn2C` [Example 7, 1,5-dimethyl-N-[2-(trifluoromethyl)pyridin-4-yl]-1H-indole-3-carboxamide], for which the “T-maze % control at 10 mg/kg” value with mice was found to be 80%. Besides, on rat α7 nAChRs, the activation at 3 µM turned out to be 663% and the “Type I or Type II” value was “I”.

Consider `CC(C)n1cc(C(=O)Nc2cncc(F)c2)c2cc(F)ccc21` [Example 6, 5-fluoro-N-(5-fluoropyridin-3-yl)-1-(propan-2-yl)-1H-indole-3-carboxamide], for which, at rat α7 nAChRs, the activation at 3 µM was determined as 374% and the “Type I or Type II” value is reported as “I”.

With `Cn1cc(C(=O)Nc2cncc(F)c2)c2cc(C(F)(F)F)ccc21` [Example 10, N-(5-fluoropyridin-3-yl)-1-methyl-5-(trifluoromethyl)-1H-indole-3-carboxamide], on rat α7 nAChRs, the activation at 3 µM was 41% and the “Type I or Type II” value is “I”.

Consider `Cn1cc(C(=O)Nc2ccnc(C(F)(F)F)c2)c2cc(F)ccc21` [Example 5, 5-fluoro-1-methyl-N-[2-(trifluoromethyl)pyridin-4-yl]-1H-indole-3-carboxamide], for which the “T-maze % control at 10 mg/kg” value in the assay on mice is 78%. In addition, at rat α7 nAChRs, the activation at 3 µM is 326% and the “Type I or Type II” value was “I”.

Take `Cc1ccc2c(c1)c(C(=O)Nc1cc(C(F)(F)F)ncn1)cn2C` [Example 8, 1,5-dimethyl-N-[6-(trifluoromethyl)pyrimidin-4-yl]-1H-indole-3-carboxamide]: on rat α7 nAChRs, the activation at 3 µM stood at 428% and the “Type I or Type II” value is given as “I”.

With `CCn1cc(C(=O)Nc2cncc(F)c2)c2cc(F)ccc21` [Example 1, 1-ethyl-5-fluoro-N-(5-fluoropyridin-3-yl)-1H-indole-3-carboxamide], the “T-maze % control at 10 mg/kg” value with mice worked out at 70%. For the same compound, the “Type I or Type II” value on rat α7 nAChRs is “I”.
